From US20260263429A1, “INHIBITORS OF CA 2+/CALMODULIN-DEPENDENT PROTEIN KINASE II (CAMKII) THAT DO NOT INHIBIT LONG-TERM POTENTIATION (LTP) INDUCTION AND THERAPEUTIC USES THEREOF” (The Regents of the University of Colorado, A Body Corporate, priority 2023, published 2026)

Columns and labels:
[1] = tested on: GFP-CaMKII synaptic enrichment (mCh-PSD95 intrabody); assay: cLTP-induced CaMKII movement to excitatory synapses in dissociated rat hippocampal cultures; format: cell-based; details: 10 μM inhibitor; cLTP 100 μM glutamate, 10 μM glycine, 45 seconds
[2] = tested on: CaMKII movement to excitatory synapses; assay: cLTP-induced CaMKII movement to excitatory synapses in the presence of soluble oligomeric Aβ; format: cell-based; details: 0.5 μM Aβ, inhibitor 10 μM, 45 minutes prior to cLTP

NCCNc1cccc(-c2ccnc3[nH]c4ccccc4c23)c1 [AS283]
cLTP-induced CaMKII co-localization/movement to excitatory synapses in hippocampal neurons [1]: failed to inhibit CaMKII binding to GluN2B | rescue of Aβ-blocked cLTP-induced movement of CaMKII to the synapses [2]: rescued
